Measurements: patent US9463189B2 (BPV Holdings, LLC, priority 2007, dated 2016)
Where a name gives a salt, the structure may show the parent alone.

Tests used:
Assay type in all cases: in vivo, C57B1/6J mice
NASH mice [1] = test: Macrophage infiltration in liver, F4/80 staining
Method: NASH-induced inflammation and lipid accumulation in the liver promotes infiltration of monocytes from peripheral circulation into the liver. Hepatic inflammatory status of NASH mice was assessed by histological assessment of the presence of macrophage specific markers including F4/80 in liver sections. An F4/80 antibody stain used is to quantitatively differentiate monocyte/macrophage cell population in the blood and tissue: infiltrating monocytes are F4/80 bright whereas liver macrophages (Kupffer cells) are F4/80 dull. There was a striking increase in the number of F4/80 bright macrophages in the liver of the NASH mice (data not shown) that is attenuated by treatment with Compound 2 (42 days, 5 mg/Kg/day) treated NASH (FIG. 4).
F4/80 stain was used to illustrate macrophage infiltration in liver tissue. The following protocol was followed: • 1. Check the number of sections per slide; if there is 1 section then use 2 slides from the same group per staining run (1 for ctrl IgG and 1 for primary antibody of interest). If there are 2 sections per slide then use 1 slide per group per run and separate the sections using a PAP pen. • 2. De-paraffin slides through 3×5-minutes Propar clearant, and re-hydrate with 5-minutes each in decreased concentrations of reagent alcohol to water (100%, 95%, 75%, water). • 3. Use Citrate buffer pH 6.0 for HIER (heat-induced epitope retrieval). […]

MCP-1 = MCP-1 in plasma and liver lysates (immunoassay)
Method: (§1) Following 120-150 days on the HFD, mice in the NASH group were treated with Compound 2 (5 or 10 mg/Kg/day) or vehicle (10% Encapsin) for 42 days. Fasting and post prandial (PP) blood draws were taken at the beginning of the study (compound treatment) to identify and confirm the NASH group and during the study to evaluate various pharmacological responses. Since the NASH mice are severely hyperinsulinemic compared to NC mice, glucose tolerance testing (GTT, measures peripheral insulin resistance) was performed to evaluate the effect of Compound 2 on improvement of peripheral insulin sensitivity. Treatment was administered for 42 days (separate experiments). Body weight and food intake was measured throughout the study.
Insulin fasting plasma samples were tested using Mercodia ultra sensitive mouse insulin ELISA: 2.5 μL EDTA plasma, ALPCO Diagnostics, Uppsala, Sweden, Cat #08-10-1150-99, LOQ (0.22-7.1 μg/L). Mouse JE/MCP-1 post prandial samples were collected at sacrifice. 12.5 μL EDTA plasma, R & D Systems, Minneapolis, Minn., Cat # MFE00, LOQ (15.6-1000 pg/mL).

NASH mice [2] = test: Hepatic steatosis / lipid accumulation in liver, Oil Red O stain image analysis
From the text: (§2) Early Steatosis Model: C57B1/6J mice (22-39 days old) mice were used for the study. Mice were fed normal chow food (Lab Diet, 5P14Prolab Animal Diet, PMI Nutritional International, Brentwood, Mo., Cat# RMH 2500) or 58% high fat diet (HFD, 58 kcal % fat and corn starch with purple dye, Research Diets, New Brunswick, N.J., Cat# D12330 equivalent to Western diet) for 120-150 days. […] This group is referred to as the HFD-low body group in FIG. 1A (insulin & liver fat accumulation˜normal). On the other hand, one fifth of the mice gained 60-70% higher body weight (compared to normal chow fed mice) while on the same HFD diet (NASH group, very high insulin and liver fat) further shown in FIG. 1A. The majority of the mice (three fifths) gained body weight as expected on the HFD (30-40% higher than the normal chow fed mice) and is referred to as the DIO group (normal to moderately high insulin and liver fat accumulation) as shown in FIG. 1A. Control animals (n=5) representative of the HFD-low body weight and the NASH groups were sacrificed prior to starting the rest of the animals on treatment with the Compound 2 (5 or 10 mg/Kg/day). Liver, white adipose and muscle from the sacrificed mice were collected for histology performed on the liver tissue.
(§3) The development of NASH was further confirmed using histological analyses of liver. The sections were analyzed for 1) hepatic steatosis 2) necroinflammation, and 3) fibrosis. Histological analyses of hepatic steatosis was assessed by quantitative image analysis of Oil Red O stain in liver sections and defined as the percentage of Oil Red ‘O’ positive area relative to the total image area.
as §1
Staining was prepared with Oil Red ‘O’ that stains fat deposits red on frozen tissues where positive staining indicates lipid accumulation. Trichrome staining was used to illuminate fibrosis; collagen deposits appear blue and positive staining indicates fibrosis.

NASH mice [3] = test: Hepatic fibrosis, Trichrome staining of liver sections
From the text: Early Steatosis Model: C57B1/6J mice (22-39 days old) mice were used for the study. Mice were fed normal chow food (Lab Diet, 5P14Prolab Animal Diet, PMI Nutritional International, Brentwood, Mo., Cat# RMH 2500) or 58% high fat diet (HFD, 58 kcal % fat and corn starch with purple dye, Research Diets, New Brunswick, N.J., Cat# D12330 equivalent to Western diet) for 120-150 days. […] This group is referred to as the HFD-low body group in FIG. 1A (insulin & liver fat accumulation˜normal). On the other hand, one fifth of the mice gained 60-70% higher body weight (compared to normal chow fed mice) while on the same HFD diet (NASH group, very high insulin and liver fat) further shown in FIG. 1A. […]
as §3
Following 120-150 days on the HFD, mice in the NASH group were treated with Compound 2 (5 or 10 mg/Kg/day) or vehicle (10% Encapsin) for 42 days. […] Body weight and food intake was measured throughout the study. […]

TGFβ-1 = TGFβ-1 levels in liver lysates of NASH mice
From the text: as §2, with “Liver, white adipose and muscle from the sacrificed mice were collected for histology performed on the liver tissue.” left out
Following 120-150 days on the HFD, mice in the NASH group were treated with Compound 2 (5 or 10 mg/Kg/day) or vehicle (10% Encapsin) for 42 days. […] Body weight and food intake was measured throughout the study.

[4] = oral administration, NASH mice, summary
[5] = oral administration, NASH mice, p<0.05 vs. vehicle

C[C@@H]1CN(Cc2ccc(OC(F)(F)F)cc2)C[C@H](C)N1S(=O)(=O)c1cccc2c1C[C@@H](C(=O)O)C2 [Compound 2, (S)-4-[cis-2,6-Dimethyl-4-(4-trifluoromethoxy-benzyl)-piperazine-1-sulfonyl]-indan-2-carboxylic acid tosylate]
number of F4/80 bright macrophages in the liver of the NASH mice (NASH mice [1]; 42 days, 5 mg/Kg/day, FIG. 4): attenuated | macrophage infiltration in the liver (NASH mice [1]; [4]): attenuated macrophage infiltration | reduction of MCP-1 levels in plasma, treated vs. untreated mice (MCP-1; 42 days of 5 mg/kg/day, p<0.006): 34% | reduction of MCP-1 levels in the liver lysates, treated vs. untreated mice (MCP-1; 42 days of 5 mg/kg/day, trend, p=0.08): 31% | levels of plasma MCP-1 (MCP-1; [5]): normalized levels | fat accumulation in the livers of treated vs. non-treated NASH mice (NASH mice [2]; 42 days of 10 mg/kg/day): reduced fat accumulation | Percent Field Area, Lipid (stained oil deposits) (NASH mice [2]; HFD + Compound 2, 10 mg/kg, 42 days, liver sections, HFD + Vehicle 47.7% +/− 5.5): 16.0% +/− 7.6 | Percent Field Area, Cytoplasm (NASH mice [2]; HFD + Compound 2, 10 mg/kg, 42 days, liver sections, HFD + Vehicle 91% +/− 2.4): 38.6% +/− 2.3 | reduced lipid accumulation in the liver (NASH mice [2]; oral administration, NASH mice, p<0.03 vs. vehicle): 32% | attenuation of progression of fibrosis, Trichrome staining of liver sections (NASH mice [3]; 10 mg/Kg/day, p<0.03, FIG. 3B): 41% | progression to fibrosis measured by histological presence of collagen deposits in the liver (NASH mice [3]; [4]): attenuated progression to fibrosis | decrement of TGFβ levels in the liver lysates (TGFβ-1; 10 mg/Kg/day, p<0.01, FIG. 3A): 49% | levels of inflammatory marker TGFβ-1 (TGFβ-1; [5]): normalized levels
